From ChEMBL document CHEMBL4118068 (Eur J Med Chem, 2017)

What was measured:
[1] = target: T1, Muscarinic acetylcholine receptor M4 (Homo sapiens, UniProt P08173); experiment: Displacement of [3H]NMS from recombinant human muscarinic M4 receptor expressed in CHOK1 cell membranes after 120 mins by scintillation counting method
T1 sequence (P08173 whole entry): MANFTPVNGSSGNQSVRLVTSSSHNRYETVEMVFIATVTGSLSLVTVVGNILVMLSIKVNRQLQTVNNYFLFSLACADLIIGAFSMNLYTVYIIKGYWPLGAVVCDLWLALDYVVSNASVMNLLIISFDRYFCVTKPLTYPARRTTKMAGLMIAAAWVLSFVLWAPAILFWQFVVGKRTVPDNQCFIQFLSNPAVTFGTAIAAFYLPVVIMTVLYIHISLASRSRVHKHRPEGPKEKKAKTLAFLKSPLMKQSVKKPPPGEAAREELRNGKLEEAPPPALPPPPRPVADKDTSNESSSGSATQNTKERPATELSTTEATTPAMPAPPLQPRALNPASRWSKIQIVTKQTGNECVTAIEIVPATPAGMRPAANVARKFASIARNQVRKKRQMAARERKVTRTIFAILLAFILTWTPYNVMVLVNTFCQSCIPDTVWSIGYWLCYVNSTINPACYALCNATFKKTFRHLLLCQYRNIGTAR

[2] = target: T2, Muscarinic acetylcholine receptor M2 (Homo sapiens, UniProt P08172); experiment: Displacement of [3H]NMS from recombinant human muscarinic M2 receptor expressed in CHOK1 cell membranes after 120 mins by scintillation counting method
T2 sequence (P08172 whole entry): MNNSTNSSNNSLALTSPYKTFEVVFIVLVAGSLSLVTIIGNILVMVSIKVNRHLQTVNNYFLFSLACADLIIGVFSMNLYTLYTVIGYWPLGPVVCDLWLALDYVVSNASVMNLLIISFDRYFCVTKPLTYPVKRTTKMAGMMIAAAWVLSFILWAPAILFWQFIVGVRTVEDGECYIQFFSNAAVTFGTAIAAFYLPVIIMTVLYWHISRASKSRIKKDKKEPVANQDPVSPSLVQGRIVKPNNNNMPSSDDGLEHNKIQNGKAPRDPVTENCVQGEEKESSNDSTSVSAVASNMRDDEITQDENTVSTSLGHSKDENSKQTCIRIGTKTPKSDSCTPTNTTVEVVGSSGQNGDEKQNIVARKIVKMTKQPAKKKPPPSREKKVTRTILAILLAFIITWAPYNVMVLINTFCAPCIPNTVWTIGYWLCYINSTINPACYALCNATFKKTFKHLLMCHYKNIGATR

[3] = target: Muscarinic acetylcholine receptor M3 (Homo sapiens, UniProt P20309); experiment: Displacement of [3H]NMS from recombinant human muscarinic M3 receptor expressed in CHOK1 cell membranes after 120 mins by scintillation counting method
Chain of Muscarinic acetylcholine receptor M3 (P20309 whole entry): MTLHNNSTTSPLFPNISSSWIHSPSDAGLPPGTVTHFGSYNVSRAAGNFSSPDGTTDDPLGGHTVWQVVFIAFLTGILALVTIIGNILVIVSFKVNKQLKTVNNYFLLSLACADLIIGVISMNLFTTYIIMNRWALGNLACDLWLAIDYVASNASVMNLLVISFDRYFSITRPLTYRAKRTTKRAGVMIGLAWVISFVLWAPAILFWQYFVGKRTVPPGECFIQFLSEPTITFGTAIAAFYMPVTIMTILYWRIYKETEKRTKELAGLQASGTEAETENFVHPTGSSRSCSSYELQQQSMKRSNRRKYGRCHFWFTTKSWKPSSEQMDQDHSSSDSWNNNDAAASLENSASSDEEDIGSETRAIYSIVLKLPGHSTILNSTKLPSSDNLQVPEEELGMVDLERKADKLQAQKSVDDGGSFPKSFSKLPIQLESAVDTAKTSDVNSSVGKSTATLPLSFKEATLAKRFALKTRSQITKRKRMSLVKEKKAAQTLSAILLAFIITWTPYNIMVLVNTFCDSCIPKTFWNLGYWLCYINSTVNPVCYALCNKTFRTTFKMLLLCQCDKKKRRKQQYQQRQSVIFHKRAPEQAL

[4] = target: T3, Muscarinic acetylcholine receptor M1 (Homo sapiens, UniProt P11229); experiment: Displacement of [3H]NMS from recombinant human muscarinic M1 receptor expressed in CHOK1 cell membranes after 120 mins by scintillation counting method
T3 sequence (P11229 whole entry): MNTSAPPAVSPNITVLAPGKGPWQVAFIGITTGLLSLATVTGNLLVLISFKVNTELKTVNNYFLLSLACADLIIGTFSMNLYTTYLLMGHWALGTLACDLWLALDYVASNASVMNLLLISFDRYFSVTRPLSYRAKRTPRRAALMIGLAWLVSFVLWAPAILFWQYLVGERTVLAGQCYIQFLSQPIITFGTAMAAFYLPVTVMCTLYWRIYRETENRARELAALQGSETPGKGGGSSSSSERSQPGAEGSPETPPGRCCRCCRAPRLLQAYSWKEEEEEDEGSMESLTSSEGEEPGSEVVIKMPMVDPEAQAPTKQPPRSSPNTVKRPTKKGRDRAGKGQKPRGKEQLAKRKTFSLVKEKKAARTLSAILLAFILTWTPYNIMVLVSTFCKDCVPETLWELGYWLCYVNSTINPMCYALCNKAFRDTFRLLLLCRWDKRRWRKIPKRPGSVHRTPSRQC

[5] = target: T4, Muscarinic acetylcholine receptor M5 (Homo sapiens, UniProt P08912); experiment: Displacement of [3H]NMS from recombinant human muscarinic M5 receptor expressed in CHOK1 cell membranes after 120 mins by scintillation counting method
T4 sequence (P08912 whole entry): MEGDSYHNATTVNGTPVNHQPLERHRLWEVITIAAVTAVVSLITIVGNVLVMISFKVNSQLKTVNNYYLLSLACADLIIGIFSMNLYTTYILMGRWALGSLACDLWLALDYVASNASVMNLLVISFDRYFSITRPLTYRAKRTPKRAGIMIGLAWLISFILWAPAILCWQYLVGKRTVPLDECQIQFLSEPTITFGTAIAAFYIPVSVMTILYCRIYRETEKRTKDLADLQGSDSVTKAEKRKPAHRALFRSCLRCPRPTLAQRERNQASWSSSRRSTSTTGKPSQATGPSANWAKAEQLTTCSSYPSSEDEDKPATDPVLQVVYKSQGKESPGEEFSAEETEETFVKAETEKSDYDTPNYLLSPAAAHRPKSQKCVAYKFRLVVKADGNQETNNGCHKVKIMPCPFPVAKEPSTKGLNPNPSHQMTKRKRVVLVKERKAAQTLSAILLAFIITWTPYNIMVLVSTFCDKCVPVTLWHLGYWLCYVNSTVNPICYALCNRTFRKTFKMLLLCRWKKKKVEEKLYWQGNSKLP

c1ccc(C2(c3ccccc3)COC[C@@H](CO[C@H]3CN4CCC3CC4)O2)cc1
Ki [1]: 437 nM | Ki [2]: 355 nM | Ki [3]: 617 nM | Ki [4]: 162 nM | Ki [5]: 631 nM

c1ccc(C2(c3ccccc3)COC[C@@H](CO[C@@H]3CN4CCC3CC4)O2)cc1
Ki [1]: 100 nM | Ki [2]: 61.7 nM | Ki [3]: 105 nM | Ki [4]: 55 nM | Ki [5]: 112 nM

c1ccc(C2(c3ccccc3)COC[C@H](CO[C@@H]3CN4CCC3CC4)O2)cc1
Ki [1]: 11.5 nM | Ki [2]: 33.1 nM | Ki [3]: 20 nM | Ki [4]: 4.57 nM | Ki [5]: 19.1 nM

c1ccc(C2(c3ccccc3)COC[C@H](CO[C@H]3CN4CCC3CC4)O2)cc1
Ki [1]: 22.9 nM | Ki [2]: 57.5 nM | Ki [3]: 43.7 nM | Ki [4]: 8.91 nM | Ki [5]: 45.7 nM

O=C(O[C@H]1CN2CCC1CC2)N1CCc2ccccc2[C@@H]1c1ccccc1 [SOLIFENACIN]
Ki [1]: 129 nM | Ki [2]: 120 nM | Ki [3]: 13.2 nM | Ki [4]: 51.3 nM | Ki [5]: 43.7 nM
